# Measured values published in US9115165B2, “Tetracyclic anthraquinone antibiotic derivatives with high activity, process for preparing the same and use thereof” (Tianjin Hemay Bio-Tech Co., Ltd., priority 2008, dated 2015).
# pEC50: −log10 of the molar value. Read-outs that look alike come from different tables or passages of the source.
# Key:
# [1] = test system: Lovo cells; assay: Cytotoxicity assay (MTS/MTT), growth inhibition of Lovo cells; assay type: cell-based, human; conditions: concentration of 1 μM
# Protocol: LOVO: human colon cancer cell strains;
# (§1) Cells were seeded into RPMI 1640 cell culture solution containing 10% fetal bovine serum (100 ku/L of penicillin and 100 ku/L of streptomycin were supplemented). The culture dish was placed in a cell incubator containing 5% CO2 at 37° C. The culture solution was changed once every 2-3 days. Cells were digested with 0.25% trypsin liquid, passaged and collected.
# (§2) Cells during the logarithmic growth phase were formulated into a cell suspension having a desired concentration with RPMI 1640 cell culture solution containing 10% fetal bovine serum. The cell suspension was added onto 96 well cell culture plate at 3000-5000 per well (100 μl). After incubating for 24 hours, 100 μl of the test substances with different concentration was added per well. There were four parallel wells for each concentration in this plate. After incubating for 72 to 120 hours, the supernatant was discarded. To each well was added 100 μl of new formulated 0.5 mg/ml MTT serum-free culture solution. After incubating for 4 hours at 37° C., the supernatant was discarded. Formazane was dissolved with 200 μl DMSO. After slightly oscillating for 15 min, absorbance values (OD value) at the detective wavelength of 570 nm and the reference wavelength of 450 nm were determined with enzyme labeling instrument.
# (§3) Data was represented by x±s. The inhibition rate=(OD value of the control group−OD value of the administration group)/OD value of the control group×100%. The maximum inhibition rate Imax and the half effective concentration (IC50) represent the anticancer effects. Figures were drawn with MicroCal Origin software. The inhibition curve of the test substance to the growth of tumor cells was fitted by Four Parameters Logistic Program of the software. The half effective concentration (IC50: μg/ml) for inhibiting the proliferation of tumor cells was calculated.
# (§4) The exposure concentrations of the test substance were 0.001 μg/ml, 0.003 μg/ml, 0.009 μg/ml, 0.027 μg/ml, 0.082 μg/ml, 0.247 μg/ml, 0.741 μg/ml, 2.222 μg/ml, 6.667 μg/ml and 20 μg/ml. The exposure concentrations of doxorubicin (positive drug) were 1.25 μg/ml, 5 μg/ml, 20 μg/ml. In a 96-well plate, 3000-5000 cells were inoculated in each well and there were four parallel wells for each concentration. Table 1 lists the growth inhibition rate of the compounds against Lovo cells at concentration of 1 μM. Table 3 lists the inhibition rate of the compounds against the hyperplasia of MCF-7 human breast cancer cells at various concentrations.
# [2] = test system: transplanted tumor; conditions: transplanted tumor in mice; cited from earlier work
# [3] = folds of doxorubicin; cited from earlier work
# [4] = test system: Kunming white mice; conditions: reference value given in the conclusion; cited from earlier work
# [5] = test system: A549 cell; assay: Cytotoxicity assay (MTS/MTT), A549 cells; assay type: cell-based, human; conditions: read-out: Half-Inhibitory Concentration of Cells Growth (EC50), A549 cell
# Protocol: A549: human lung cancer cell strains;
# as §1, §2, §3, §4
# [6] = test system: MCF-7 human breast cancer cells; assay: Cytotoxicity assay (MTS/MTT), MCF-7 cells; assay type: cell-based; conditions: for pEC50: read-out: Half-Inhibitory Concentration of Cells Growth (EC50), MCF-7 cell
# Protocol: MCF-7: human breast cancer cell strains;
# as §1, §2, §3, §4
# [7] = test system: HEPG-2; assay: Cytotoxicity assay (MTS/MTT), HEPG-2 cells; assay type: cell-based, human; conditions: read-out: Half-Inhibitory Concentration of Cells Growth (EC50), HEPG-2
# Protocol: HEPG-2: human liver cancer cell strains;
# as §1, §2, §3, §4
# [8] = test system: HCT-8 cell; assay: Cytotoxicity assay (MTS/MTT), HCT-8 cells; assay type: cell-based, human; conditions: read-out: Half-Inhibitory Concentration of Cells Growth (EC50), HCT-8 cell
# Protocol: HCT-8: human colon cancer cell strains;
# as §1, §2, §3, §4
# [9] = test system: Kunming white mice; assay: In vivo MTD test in mice; conditions: for Abnormality on the body surface / Change of body weight / Mortality rate: tail vein injection
# Protocol: Experiment purpose: preliminary investigation on in vivo toxicity of the compound in Example 1 in mice
# Experiment animal: Kunming white mice 20±2 g, purchased from the animal housing in Institute of Radiation Medicine, Chinese Academy of Medical Sciences. Animal license No.: SCXK(JIN)2005-0001.
# Preparation of drug solution: After the drug was vortexed to dissolve with 0.5% (V/V) of DMSO, 5% (V/V) of RH40 (ethoxylated hydrogenated castor oil) was added. After mixing with vortex, the volume was determined with normal saline.
# (1) Single administration: Nine healthy Kunming male white mice, of which the body weights are 20±2 g, were divided into three groups: 2 mice belong to the control group; 6 mice belong to 20 mg/kg group; 1 mouse belongs to 30 mg/kg group. 20 mg/kg and 30 mg/kg of the compound in Example 1 were administrated once via tail vein injection to the mice in the administration group. The same volume of a solvent was administrated as control to the mice in the control group. After administration, conditions such as action, reflex, locomotor activity and the like of the mice were observed within one hour. Subsequently, the body weights of the mice were recorded every day. Having observed for 14 days after drug withdrawal, the mice were anatomized to observe whether their main organs have an obvious abnormality.
# (2) Multiple administrations: Twelve healthy Kunming white mice including six male mice and six female mice, of which the body weights are 20±2 g, were divided into two groups: […]. 10 mg/kg of the test drug was administrated once every three days via tail vein injection to the mice in the administration group. The same volume of a solvent was administrated as the control to the mice in the control group. The mice in each group were administrated five times. After each administration, conditions such as action, reflex, locomotor activity and the like of the mice were observed within one hour. The body weights of mice were recorded every day. Having been fed normally for one week after drug withdrawal, the mice were anatomized to observe whether their main organs have an obvious abnormality.
# [10] = multiple administrations, 10 mg/kg once every three days, five times
# [11] = single administration, 20 mg/kg and 30 mg/kg
# [12] = MCF-7, compound concentration 0.001 μg/ml
# [13] = MCF-7, compound concentration 0.003 μg/ml
# [14] = MCF-7, compound concentration 0.009 μg/ml
# [15] = MCF-7, compound concentration 0.027 μg/ml
# [16] = MCF-7, compound concentration 0.082 μg/ml
# [17] = MCF-7, compound concentration 0.247 μg/ml
# [18] = MCF-7, compound concentration 0.741 μg/ml
# [19] = MCF-7, compound concentration 2.222 μg/ml
# [20] = MCF-7, compound concentration 6.667 μg/ml
# [21] = MCF-7, compound concentration 20 μg/ml
compound,measurement,setting,value
3′-pyrrolyl-4′-(pyran-2-yl)doxorubicin [Example 6],Growth Inhibition Rate (%),[1],90.94%
3′-pyrrolyl-5-iminodaunomycin [Example 2],Growth Inhibition Rate (%),[1],74.0%
3′-pyrrolyl-esorubicin [Example 4],Growth Inhibition Rate (%),[1],40.71%
3′-pyrrolyl-idarubicin [Example 3],Growth Inhibition Rate (%),[1],88.9%
"COc1cccc2c1C(=O)c1c(O)c3c(c(O)c1C2=O)C[C@@](O)(C(=O)CO)C[C@@H]3O[C@H]1C[C@H](N2C=CCC2)[C@H](O)[C@H](C)O1 [AN-201, 2-pyrrolinyl-doxorubicin]",Anticancer activity at the maximal tolerance dose,[2],the anticancer activity was not observed at the maximal tolerance dose
same,Activity in the cellular level relative to doxorubicin,[3],300-1000 folds
"COc1cccc2c1C(=O)c1c(O)c3c(c(O)c1C2=O)C[C@@](O)(C(=O)CO)C[C@@H]3O[C@H]1C[C@H](N)[C@H](O)[C@H](C)O1 [Doxorubicin, doxorubicin, reference compound]",inhibition at 1 µM,"[1]; Homo sapiens, read-out: Growth Inhibition Rate (%)",50.4%
same,Maximal tolerance dose (MTD),[4],8 to 12 mg/kg
same,pEC50,"[5]; Homo sapiens, A549",6.18
same,pEC50,"[6]; Homo sapiens, MCF7",5.92
same,pEC50,"[7]; Homo sapiens, HepG2",5.70
same,pEC50,"[8]; Homo sapiens, HCT-8",6.05
"COc1cccc2c1C(=O)c1c(O)c3c(c(O)c1C2=O)C[C@@](O)(C(=O)CO)C[C@@H]3O[C@H]1C[C@H](n2cccc2)[C@H](O)[C@H](C)O1 [Example 1, 3′-pyrrolyldoxorubicin]",Maximal tolerance dose (MTD) relative to doxorubicin,"[9]; mice, compared with doxorubicin MTD 8-12 mg/kg",at least more than five folds higher than that of doxorubicin
same,Abnormality on the body surface,[9]; [10],no obvious abnormality on the body surface was observed
same,Change of body weight,[9]; [10],The body weight of each mouse increased slowly after administration
same,Mortality rate,[9]; [10],Death was not found
same,Abnormality on the body surface,[9]; [11],no obvious abnormality on the body surface was observed
same,Change of body weight,[9]; [11],The body weight of each mouse increased after administration
same,Mortality rate,"[9]; single administration, 20 mg/kg and 30 mg/kg, observed 14 days",Death was not found
same,Growth Inhibition Rate (%),[1]; 1 µM,80.62%
same,pEC50,[5]; A549 cell,7.21
same,A570 nm-OD Values,[6]; [12],1.629 ± 0.257
same,Inhibition Rate (%),[6]; [12],4.27%
same,A570 nm-OD Values,[6]; [13],1.744 ± 0.176
same,Inhibition Rate (%),[6]; [13],−2.49%
same,A570 nm-OD Values,[6]; [14],1.443 ± 0.079
same,Inhibition Rate (%),[6]; [14],15.17%
same,A570 nm-OD Values,[6]; [15],1.238 ± 0.072
same,Inhibition Rate (%),[6]; [15],27.22%
same,A570 nm-OD Values,[6]; [16],0.883 ± 0.041
same,Inhibition Rate (%),[6]; [16],48.09%
same,A570 nm-OD Values,[6]; [17],0.703 ± 0.058
same,Inhibition Rate (%),[6]; [17],58.68%
same,A570 nm-OD Values,[6]; [18],0.461 ± 0.026
same,Inhibition Rate (%),[6]; [18],72.89%
same,A570 nm-OD Values,[6]; [19],0.302 ± 0.030
same,Inhibition Rate (%),[6]; [19],82.26%
same,A570 nm-OD Values,[6]; [20],0.320 ± 0.030
same,Inhibition Rate (%),[6]; [20],81.18%
same,A570 nm-OD Values,[6]; [21],0.289 ± 0.019
same,Inhibition Rate (%),[6]; [21],83.03%
same,pEC50,[6]; MCF-7 cell,6.68
same,Imax (maximum inhibition rate),[6]; MCF-7 human breast cancer cells,Imax = 83.03%
same,IC50,"[6]; MCF-7 human breast cancer cells, fitted inhibition curve",0.06023 ± 0.01528 µg/mL
same,pEC50,[7]; HEPG-2,6.09
same,pEC50,[8]; HCT-8 cell,6.31
"COc1cccc2c1C(=O)c1c(O)c3c(c(O)c1C2=O)C[C@@](O)(C(=O)CO)C[C@@H]3O[C@H]1C[C@H](n2cccc2)[C@H](O)[C@H](C)O1 [Example 5, 3′-pyrrolyldoxorubicin]",Growth Inhibition Rate (%),[1],67.25%
"COc1cccc2c1C(=O)c1c(O)c3c(c(O)c1C2=O)CC(O)(C(=O)CO)CC3OC1CC(N2C(=O)CCC2=O)C(O)C(C)O1 (stereo not shown) [Example 7, 3′-succinimidodoxorubicin]",Growth Inhibition Rate (%),[1],83.31%
"COc1cccc2c1C(=O)c1c(O)c3c(c(O)c1C2=O)CC(O)(C(=O)COC(=O)CCC(=O)O)CC3OC1CC(n2cccc2)C(O)C(C)O1 (stereo not shown) [Example 13, 3′-pyrrolyldoxorubicin-14-oxo-hydrogen succinate]",Growth Inhibition Rate (%),[1],76.05%
same,pEC50,[5]; A549 cell,5.63
same,pEC50,[6]; MCF-7 cell,6.03
same,pEC50,[7]; HEPG-2,6.82
same,pEC50,[8]; HCT-8 cell,5.73
"COc1cccc2c1C(=O)c1c(O)c3c(c(O)c1C2=O)CC(O)(C(=O)COC(=O)C(C)N)CC3OC1CC(n2cccc2)C(O)C(C)O1.Cl (stereo not shown) [Example 38, 3′-pyrrolyldoxorubicin-14-oxo-alaninate hydrochloride]",Growth Inhibition Rate (%),[1],78.44%
same,pEC50,[5]; A549 cell,6.64
same,pEC50,[6]; MCF-7 cell,6.06
same,pEC50,[7]; HEPG-2,5.97
same,pEC50,[8]; HCT-8 cell,6.23
